Experimental findings from PMC10669572, “Norlobaridone Inhibits Quorum Sensing-Dependent Biofilm Formation and Some Virulence Factors in Pseudomonas aeruginosa by Disrupting Its Transcriptional Activator Protein LasR Dimerization” (Biomolecules, 2023) are described below.

Converted amounts (≈) assume the structure as drawn.

As a reminder, the inhibition is the percentage by which the read-out fell short of the control. The term stoichiometry N denotes the number of molecules, sites or subunits per partner or assembly.

Data set [1] deals with P. aeruginosa. Nature of the data set: microbe, parasite or virus in culture. The arrangement: antibacterial MIC determination. To be noted: Pseudomonas aeruginosa. The procedure: At this dose, NBD had no effect on the growth of P. aeruginosa, as shown by the fact that the growth curve of the bacteria in the presence of 5 μg/mL NBD was identical to the curve in the absence of the treatment (Figure S1).

The test system of data set [2] is P. aeruginosa. Kind of data set: microbe, parasite or virus in culture. The arrangement: crystal violet biofilm formation assay in 96-well plates, OD570. As to conditions: Pseudomonas aeruginosa, 24 h, read-out: % P. aeruginosa biofilm inhibition. The procedure: In 96-well polystyrene plates, the influence of NBD on biofilm growth was studied. The experiment was carried out in the manner reported by Stepanovi et al., with a few minor changes. P. aeruginosa cells were cultured in LB medium, vortexed, then diluted 1:100 in new LB media to a final concentration of 1.5 × 10^8 CFU/mL (0.5 McFarland) for biofilm development. Cells were then cultured for 24 h at 37 °C with or without NBD. Following that, non-adherent bacteria were washed away in sterile phosphate-buffered saline (PBS), and adherent bacteria were stained for 15 min with a 1% crystal violet solution. Water was used to clean the wells in order to remove any remaining stains. The absorbance of the crystal violet solution at OD570 was determined by spectrophotometric analysis. Wells with phosphate buffer-enriched media were utilized as negative controls. As a positive control, azithromycin (AZM) was used, which inhibits biofilm formation at sub-inhibitory concentrations. […] At this dose, NBD had no effect on the growth of P. aeruginosa, as shown by the fact that the growth curve of the bacteria in the presence of 5 μg/mL NBD was identical to the curve in the absence of the treatment (Figure S1).

Data set [3] concerns E. coli. Kind of data set: microbe, parasite or virus in culture. On the set-up: antibacterial MIC determination. To be noted: Escherichia coli.
Data set [4] concerns the molecule itself. Kind of data set: AUC; sedimentation velocity, 141,900 x g, 20 °C, 20 mM Hepes pH 7.5, 100 mM NaCl; LasR 0.5 and 1 mg/mL produced with and in the presence of 100 μM OdDHL; c(S) and c(M) distributions in SEDFIT.

Regarding `O=c1oc2c(O)c(O)cc3c(=O)oc4c(O)c(O)cc1c4c23` [Ellagic acid], the MIC in data set [1] and in data set [3] was 128 µg/mL (≈ 424 µM) in each case. Also, in data set [2], the inhibition at 5 µg/mL was 22.8%.
Take `O=C(O)c1cc(O)c(O)c(O)c1` [Gallic acid]: the MIC in data set [1] and in data set [3] was above 256 µg/mL throughout. For the same molecule, the inhibition at 5 µg/mL in data set [2] worked out at 21.4%.
On to `CCCCCc1cc(O)cc2c1Oc1cc(O)cc(C(=O)CCCC)c1C(=O)O2` [NBD, norlobaridone], for which the MIC in data set [1] and in data set [3] was 128 µg/mL (≈ 321 µM) in each case. In data set [2], the inhibition at 5 µg/mL was found to be 64.6%.
For `O=C(O)c1ccc(O)cc1` [P-hydroxy benzoic acid], the MIC in data set [1] is 128 µg/mL (≈ 927 µM); in data set [3], above 256 µg/mL. Moreover, the inhibition at 5 µg/mL in data set [2] is 12.9%.
On to `CCCCCc1ccccc1O` [Pentylphenol], for which the MIC in data set [1] is 256 µg/mL (≈ 1560 µM); in data set [3], above 256 µg/mL. Further, the inhibition at 5 µg/mL in data set [2] is 11.4%.
For the molecule `Oc1cc(O)cc(O)c1` [Phloroglucinol], the MIC in data set [1] and in data set [3] was 64 µg/mL (≈ 507 µM) in each case. The inhibition at 5 µg/mL in data set [2] stood at 31.1%.
With `Oc1cccc(O)c1` [Resorcinol], the MIC in data set [1] and in data set [3] was 128 µg/mL (≈ 1160 µM) each time. Moreover, the inhibition at 5 µg/mL in data set [2] stood at 27.7%.
As to `CC(=O)c1c(O)c(C)c(O)c(Cc2c(O)c3c(c(C(=O)/C=C/c4ccccc4)c2O)OC(C)(C)C=C3)c1O` [Rottlerin], the MIC in data set [1] and in data set [3] was above 256 µg/mL throughout. Moreover, the inhibition at 5 µg/mL in data set [2] is 7.9%.

B1: LasR (Pseudomonas aeruginosa transcriptional activator protein, LuxR-type quorum sensing receptor) (natural protein)
chain: MALVDGFLELERSSGKLEWSAILQKMASDLGFSKILFGLLPKDSQDYENAFIVGNYPAAWREHYDRAGYARVDPTVSHCTQSVLPIFWEPSIYQTRKQHEFFEEASAAGLVYGLTMPLHGARGELGALSLSVEAENRAEANRFMESVLPTLWMLKDYALQSGAGLAFEHPVSKPVVLTSREKEVLQWCAIGKTSWEISVICNCSEANVNFHMGNIRRKFGVTSRRVAAIMAVNLGLITL
notes: predicted molecular weight of the single chain 26.62 kD; Produced and kept with a small-molecule ligand: odDHL (dimer) or norlobaridone, NBD (monomer); also called LasR-odDHL; NBD-LasR; source: E. coli BL21 (pET23b, 1 mM IPTG, 18 °C overnight) in the presence of 100 μM OdDHL or 100 μM NBD; purified (heparin column, MonoQ, S200 size exclusion)
As to B1, the “stoichiometry N” value in data set [4] was 2.
